Measured values from PubChem BioAssay AID248 (DTP/NCI, 2004).
“And” between values parts separate entries of the source, which are not always exact repeats. Equal entries are not always repeated. Inconclusive results and toxic doses are left out. Cut-off read from the data, not from the text of the source: active = T/C of 150% or more; inactive = T/C below 125%.

Test system: L1210 leukemia ip in BDF1 mice, survival T/C
Experiment: NCI In Vivo Anticancer Drug Screen. Data for tumor model L1210 Leukemia (intraperitoneal) in B6D2F1 (BDF1) mice
Conditions: higher = longer survival
Summary of the method: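 Antitumor effect is assessed in tumor-bearing animals. Survival in the compound arm is compared with a vehicle-dosed control arm and expressed as their quotient.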

[1] = endpoint: mean survival time, dose: 50.0 mg/kg/injection, schedule: Q01DX009 (ip), vehicle: Klucel (hydroxypropylcellulose) (HPC)
[2] = endpoint: mean survival time, dose: 100.0 mg/kg/injection, schedule: Q01DX001 (ip), vehicle: Klucel (hydroxypropylcellulose) (HPC)
[3] = endpoint: mean survival time, dose: 100.0 mg/kg/injection, schedule: Q01DX001 (ip), vehicle: saline
[4] = endpoint: mean survival time, dose: 100.0 mg/kg/injection, schedule: Q01DX009 (ip), vehicle: Klucel (hydroxypropylcellulose) (HPC)
[5] = endpoint: mean survival time, dose: 200.0 mg/kg/injection, schedule: Q01DX001 (ip), vehicle: Klucel (hydroxypropylcellulose) (HPC)
[6] = endpoint: mean survival time, dose: 200.0 mg/kg/injection, schedule: Q01DX009 (ip), vehicle: Klucel (hydroxypropylcellulose) (HPC)
[7] = endpoint: mean survival time, dose: 400.0 mg/kg/injection, schedule: Q01DX001 (ip), vehicle: Klucel (hydroxypropylcellulose) (HPC)
[8] = endpoint: mean survival time, dose: 400.0 mg/kg/injection, schedule: Q01DX009 (ip), vehicle: Klucel (hydroxypropylcellulose) (HPC)
[9] = endpoint: mean survival time, dose: 100.0 mg/kg/injection, schedule: Q04DX003 (ip), vehicle: saline with Tween-80
[10] = endpoint: mean survival time, dose: 200.0 mg/kg/injection, schedule: Q04DX003 (ip), vehicle: saline with Tween-80
[11] = endpoint: mean survival time, dose: 400.0 mg/kg/injection, schedule: Q04DX003 (ip), vehicle: saline with Tween-80
[12] = endpoint: mean survival time, dose: 100.0 mg/kg/injection, schedule: Q01DX001 (ip), vehicle: carboxymethylcellulose (CMC)
[13] = endpoint: mean survival time, dose: 200.0 mg/kg/injection, schedule: Q01DX001 (ip), vehicle: carboxymethylcellulose (CMC)
[14] = endpoint: mean survival time, dose: 400.0 mg/kg/injection, schedule: Q01DX001 (ip), vehicle: carboxymethylcellulose (CMC)
[15] = endpoint: mean survival time, dose: 100.0 mg/kg/injection, schedule: Q04DX003 (ip), vehicle: Klucel (hydroxypropylcellulose) (HPC)
[16] = endpoint: mean survival time, dose: 200.0 mg/kg/injection, schedule: Q04DX003 (ip), vehicle: Klucel (hydroxypropylcellulose) (HPC)
[17] = endpoint: mean survival time, dose: 400.0 mg/kg/injection, schedule: Q04DX003 (ip), vehicle: Klucel (hydroxypropylcellulose) (HPC)
[18] = endpoint: mean survival time, dose: 100.0 mg/kg/injection, schedule: Q04DX003 (ip), vehicle: saline
[19] = endpoint: mean survival time, dose: 200.0 mg/kg/injection, schedule: Q04DX003 (ip), vehicle: saline
[20] = endpoint: mean survival time, dose: 400.0 mg/kg/injection, schedule: Q04DX003 (ip), vehicle: saline
[21] = endpoint: mean survival time, dose: 50.0 mg/kg/injection, schedule: Q04DX003 (ip), vehicle: saline

Measured: T/C

Cc1cc(N(CCCl)CCCl)ccc1C=Nc1ccccc1C(=O)O
inactive: endpoint: mean survival time, dose: 50.0 mg/kg/injection, schedule: Q01DX001 (ip), vehicle: saline 94 % of control | [1] 106 % of control | [2] 94 % of control | [3] 105 % of control | [4] 113 % of control | [5] 103 % of control | endpoint: mean survival time, dose: 200.0 mg/kg/injection, schedule: Q01DX001 (ip), vehicle: saline 103 % of control | [6] 120 % of control | [7] 101 % of control | endpoint: mean survival time, dose: 400.0 mg/kg/injection, schedule: Q01DX001 (ip), vehicle: saline 105 % of control | [8] 98 % of control

Brc1ccccc1-c1ccccc1-c1ccccc1
inactive: [9] 92 % of control | [10] 100 % of control | [11] 92 % of control

CC(=O)Nc1ncc(Oc2ccc(Cl)cc2Cl)c(=O)[nH]1
inactive: endpoint: mean survival time, dose: 50.0 mg/kg/injection, schedule: Q01DX001 (ip), vehicle: carboxymethylcellulose (CMC) 102 % of control | [12] 119 % of control | [13] 96 % of control | [14] 102 % of control

OC(C/C(Cc1ccccc1)=N/Nc1ccccc1)(C(F)(F)F)C(F)(F)F
inactive: [4] 94 % of control | [15] 96 % of control | [6] 96 % of control | [16] 88 % of control | [8] 100 % of control | [17] 107 % of control

CC(C)(CCC(C)(C)NCCC#N)NCCC#N
inactive: endpoint: mean survival time, dose: 50.0 mg/kg/injection, schedule: Q01DX009 (ip), vehicle: saline 104 % of control | endpoint: mean survival time, dose: 100.0 mg/kg/injection, schedule: Q01DX009 (ip), vehicle: saline 104 % of control | [18] 105 % of control | endpoint: mean survival time, dose: 200.0 mg/kg/injection, schedule: Q01DX009 (ip), vehicle: saline 105 % of control | [19] 103 % of control | endpoint: mean survival time, dose: 400.0 mg/kg/injection, schedule: Q01DX009 (ip), vehicle: saline 101 % of control | [20] 95 % of control

c1ccc2c(C3CCCCN3)c[nH]c2c1 (centres undefined)
inactive: endpoint: mean survival time, dose: 12.5 mg/kg/injection, schedule: Q01DX009 (ip), vehicle: saline 88 % of control | endpoint: mean survival time, dose: 25.0 mg/kg/injection, schedule: Q01DX009 (ip), vehicle: saline 90 % of control | endpoint: mean survival time, dose: 25.0 mg/kg/injection, schedule: Q04DX003 (ip), vehicle: saline 103 % of control | [21] 92 % of control | [3] 97 % of control

S=c1nc[nH]c2c1CP(c1ccccc1)CC2 (centres undefined)
inactive: [9] 110 % of control | [10] 100 % of control | [11] 101 % of control

Nc1ccccc1-c1nc(N)c2ccccc2n1
inactive: [2] 102 % of control | [5] 102 % of control | [7] 108 % of control

COC1=C(Br)C(=O)C(OC)=C(Br)C1=O
inactive: endpoint: mean survival time, dose: 25.0 mg/kg/injection, schedule: Q04DX003 (ip), vehicle: saline with Tween-80 95 % of control | endpoint: mean survival time, dose: 50.0 mg/kg/injection, schedule: Q04DX003 (ip), vehicle: saline with Tween-80 92 % of control | [9] 91 % of control

COc1ccc(C2c3cc4c(c(OC)c3CC3OCC(=O)C32)OCO4)cc1OC (centres undefined)
inactive: endpoint: mean survival time, dose: 12.5 mg/kg/injection, schedule: Q01DX009 (ip), vehicle: Klucel (hydroxypropylcellulose) (HPC) 110 % of control | endpoint: mean survival time, dose: 25.0 mg/kg/injection, schedule: Q01DX009 (ip), vehicle: Klucel (hydroxypropylcellulose) (HPC) 110 % of control | [1] 123 % of control | [21] 110 % of control | endpoint: mean survival time, dose: 75.0 mg/kg/injection, schedule: Q01DX001 (ip), vehicle: Klucel (hydroxypropylcellulose) (HPC) 106 % of control | [4] 121 % of control | [18] 116 % of control | endpoint: mean survival time, dose: 150.0 mg/kg/injection, schedule: Q01DX001 (ip), vehicle: Klucel (hydroxypropylcellulose) (HPC) 112 % of control | [6] 101 % of control | [19] 116 % of control | endpoint: mean survival time, dose: 300.0 mg/kg/injection, schedule: Q01DX001 (ip), vehicle: Klucel (hydroxypropylcellulose) (HPC) 104 % of control | [20] 110 % of control | endpoint: mean survival time, dose: 600.0 mg/kg/injection, schedule: Q01DX001 (ip), vehicle: Klucel (hydroxypropylcellulose) (HPC) 115 % of control | endpoint: mean survival time, dose: 800.0 mg/kg/injection, schedule: Q04DX003 (ip), vehicle: saline 118 % of control | endpoint: mean survival time, dose: 1200.0 mg/kg/injection, schedule: Q01DX001 (ip), vehicle: Klucel (hydroxypropylcellulose) (HPC) 118 % of control | endpoint: median survival time, dose: 12.5 mg/kg/injection, schedule: Q01DX009 (ip), vehicle: Klucel (hydroxypropylcellulose) (HPC) 105 % of control | endpoint: median survival time, dose: 25.0 mg/kg/injection, schedule: Q01DX009 (ip), vehicle: Klucel (hydroxypropylcellulose) (HPC) 100 % of control | endpoint: median survival time, dose: 50.0 mg/kg/injection, schedule: Q01DX009 (ip), vehicle: Klucel (hydroxypropylcellulose) (HPC) 111 % of control | endpoint: median survival time, dose: 100.0 mg/kg/injection, schedule: Q01DX009 (ip), vehicle: Klucel (hydroxypropylcellulose) (HPC) 116 % of control

Cc1ccc(N(O)C(=O)Nc2ccccc2)cc1
inactive: endpoint: mean survival time, dose: 50.0 mg/kg/injection, schedule: Q01DX015 (ip), vehicle: methylcellulose (MC) 102 % of control | endpoint: mean survival time, dose: 100.0 mg/kg/injection, schedule: Q01DX015 (ip), vehicle: methylcellulose (MC) 91 % of control | endpoint: mean survival time, dose: 200.0 mg/kg/injection, schedule: Q01DX015 (ip), vehicle: methylcellulose (MC) 96 % of control

CCCCCCc1cc(N=Nc2ccc(S(=O)(=O)Nc3nccc(C)n3)cc2)c(O)cc1O
inactive: [12] 95 % of control | [13] 98 % of control | [14] 93 % of control

CCOP(=S)(N/N=C1\CC2CCC1C2)OCC (centres undefined)
inactive: endpoint: mean survival time, dose: 100.0 mg/kg/injection, schedule: Q01DX001 (ip), vehicle: other 94 % of control

O=C(NC(=S)NNC(=S)NNc1ccccc1)c1ccccc1
inactive: endpoint: mean survival time, dose: 12.5 mg/kg/injection, schedule: Q04DX002 (ip), vehicle: saline with Tween-80 101 % of control | endpoint: mean survival time, dose: 25.0 mg/kg/injection, schedule: Q01DX009 (ip), vehicle: saline with Tween-80 102 % of control | endpoint: mean survival time, dose: 25.0 mg/kg/injection, schedule: Q04DX002 (ip), vehicle: saline with Tween-80 107 % of control and 90 % of control | endpoint: mean survival time, dose: 50.0 mg/kg/injection, schedule: Q01DX009 (ip), vehicle: saline with Tween-80 115 % of control | endpoint: mean survival time, dose: 50.0 mg/kg/injection, schedule: Q04DX002 (ip), vehicle: saline with Tween-80 108 % of control | endpoint: mean survival time, dose: 100.0 mg/kg/injection, schedule: Q04DX002 (ip), vehicle: saline with Tween-80 96 % of control and 101 % of control and 110 % of control | endpoint: mean survival time, dose: 200.0 mg/kg/injection, schedule: Q04DX002 (ip), vehicle: saline with Tween-80 108 % of control

COc1cc2c(cc1OC)C(=O)CN(S(=O)(=O)c1ccc(C)cc1)CC2
inactive: endpoint: mean survival time, dose: 50.0 mg/kg/injection, schedule: Q01DX009 (ip), vehicle: saline sonified 101 % of control | endpoint: mean survival time, dose: 100.0 mg/kg/injection, schedule: Q01DX009 (ip), vehicle: saline sonified 87 % of control | [15] 96 % of control | endpoint: mean survival time, dose: 200.0 mg/kg/injection, schedule: Q01DX009 (ip), vehicle: saline sonified 89 % of control | [16] 96 % of control | [17] 97 % of control
